Test results taken from ChEMBL document CHEMBL1201862, “PubChem BioAssay data set” (2004).
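48-hour exposure; five concentrations; linearly interpolated endpoints. GI50 is the concentration that inhibits growth by half.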 Calls of active or inactive are those of the source. Rule as the data show it: active = GI50 up to about 1.1 µM and inactive = higher.

Experiments:
Assay in all cases: NCI tumour cell line growth inhibition, 48 h
[1] = tested on: SF-295
[2] = tested on: A549
[3] = tested on: SK-OV-3
[4] = tested on: OVCAR-8
[5] = tested on: 786-0
[6] = tested on: SN12C
[7] = tested on: Hs-578T
[8] = tested on: MOLT-4
[9] = tested on: SF-268
[10] = tested on: OVCAR-5
[11] = tested on: HT-29
[12] = tested on: CCRF-CEM
[13] = tested on: UACC-62
[14] = tested on: HCT-15
[15] = tested on: SW-620
[16] = tested on: MCF7
[17] = tested on: CAKI-1
[18] = tested on: SK-MEL-5
[19] = tested on: RXF 393

Row | SMILES | GI50 [1] | GI50 [2] | GI50 [3] | GI50 [4] | GI50 [5] | GI50 [6] | GI50 [7] | GI50 [8] | GI50 [9] | GI50 [10] | GI50 [11] | GI50 [12] | GI50 [13] | GI50 [14] [µM] | GI50 [15] | GI50 [16] | GI50 [17] | GI50 [18] | GI50 [19]
1 | O=C(CNc1nccs1)Nn1cnc2ccc(S(=O)(=O)Nc3nccs3)cc2c1=O | > 100 µM (inactive) | > 100 µM (inactive) | > 100 µM (inactive) | > 100 µM (inactive) | > 100 µM (inactive) | > 100 µM (inactive) | > 100 µM (inactive) | > 100 µM (inactive) | > 100 µM (inactive) | > 100 µM (inactive) | > 100 µM (inactive) | > 100 µM (inactive) | > 100 µM (inactive) | > 100 | > 100 µM (inactive) | > 100 µM (inactive) | > 100 µM (inactive) | – | –
2 | CC1=C2C(=O)c3ccccc3C(=O)[C@H]2C[C@@H](N2CCCCCC2=O)O1 | 18.8 µM (inactive) | 20.3 µM (inactive) | 27.5 µM (inactive) | 21.5 µM (inactive) | 18.4 µM (inactive) | 17.7 µM (inactive) | 30.5 µM (inactive) | 14.7 µM (inactive) | 20.9 µM (inactive) | 16.7 µM (inactive) | 27 µM (inactive) | 3.44 µM (inactive) | 19.2 µM (inactive) | 20.7 | 17.3 µM (inactive) | – | 16.9 µM (inactive) | 16.1 µM (inactive) | 27 µM (inactive)
3 | CN1C(=O)[C@@H]2N(CSC2(C)C)C1=S | > 100 µM (inactive) | > 100 µM (inactive) | > 100 µM (inactive) | > 100 µM (inactive) | > 100 µM (inactive) | > 100 µM (inactive) | – | > 100 µM (inactive) | > 100 µM (inactive) | > 100 µM (inactive) | > 100 µM (inactive) | – | > 100 µM (inactive) | > 100 | > 100 µM (inactive) | > 100 µM (inactive) | > 100 µM (inactive) | 4.47 µM (inactive) | > 100 µM (inactive)
4 | C[n+]1cc(C(O)c2ccc3c(c2)OCO3)c2ccccc2c1 (stereo not drawn) | 28.6 µM (inactive) | 33.3 µM (inactive) | 45.5 µM (inactive) | 33.3 µM (inactive) | 36.5 µM (inactive) | 40.6 µM (inactive) | – | 17.9 µM (inactive) | 28.6 µM (inactive) | > 100 µM (inactive) | 51.2 µM (inactive) | 29.9 µM (inactive) | 22.9 µM (inactive) | 33.5 | 44.2 µM (inactive) | – | 13.9 µM (inactive) | 17.9 µM (inactive) | 14.1 µM (inactive)
5 | Cc1ccc(S(=O)(=O)Nn2c(-c3ccccc3)c(C#N)c(-c3ccc(Cl)cc3)c(C#N)c2=O)cc1 | 26.8 µM (inactive) | 26.9 µM (inactive) | 35.4 µM (inactive) | – | 6.79 µM (inactive) | 35.7 µM (inactive) | – | 18.7 µM (inactive) | – | 47 µM (inactive) | – | 20.4 µM (inactive) | 16.1 µM (inactive) | 26.9 | 30.4 µM (inactive) | 19.4 µM (inactive) | 55.7 µM (inactive) | 15.2 µM (inactive) | 25.2 µM (inactive)
6 | [N-]=[N+]=CC(=O)OC1CCc2ccccc21 (stereo not drawn) | 40.8 µM (inactive) | – | > 100 µM (inactive) | – | 61.9 µM (inactive) | 42.5 µM (inactive) | – | – | > 100 µM (inactive) | 46.5 µM (inactive) | > 100 µM (inactive) | > 10 µM (inactive) | > 100 µM (inactive) | > 100 | > 100 µM (inactive) | 71.1 µM (inactive) | 26 µM (inactive) | 85.1 µM (inactive) | 60.3 µM (inactive)
7 | CN1Cc2cc3cc4c(cc3nc2N(C)C1)OCCO4 | > 100 µM (inactive) | > 100 µM (inactive) | > 100 µM (inactive) | > 100 µM (inactive) | > 100 µM (inactive) | > 100 µM (inactive) | – | 64 µM (inactive) | > 100 µM (inactive) | > 100 µM (inactive) | > 100 µM (inactive) | > 100 µM (inactive) | > 100 µM (inactive) | > 100 | > 100 µM (inactive) | > 100 µM (inactive) | > 100 µM (inactive) | > 100 µM (inactive) | > 100 µM (inactive)
8 | C=C1CCCC(C)(C)[C@H]1C/C=C1\CCOC1=O | 17.1 µM (inactive) | 13.7 µM (inactive) | 10.5 µM (inactive) | 17.7 µM (inactive) | 14.7 µM (inactive) | 18.2 µM (inactive) | 16.9 µM (inactive) | 10.6 µM (inactive) | 9.04 µM (inactive) | – | 13.9 µM (inactive) | 21.6 µM (inactive) | 29.4 µM (inactive) | 14.5 | 18.7 µM (inactive) | 12.8 µM (inactive) | 16.6 µM (inactive) | 10.2 µM (inactive) | –
9 | Cc1ccc(-n2nncc2[Si](C)(C)C)s1 | > 100 µM (inactive) | > 100 µM (inactive) | > 100 µM (inactive) | > 100 µM (inactive) | > 100 µM (inactive) | > 100 µM (inactive) | > 100 µM (inactive) | – | > 100 µM (inactive) | > 100 µM (inactive) | > 100 µM (inactive) | 22.6 µM (inactive) | > 100 µM (inactive) | > 100 | > 100 µM (inactive) | > 100 µM (inactive) | > 100 µM (inactive) | > 100 µM (inactive) | –
10 | CC(C)=CCC/C(C)=C/CCC1(C)C2COC(=O)C21 (stereo not drawn) | 77.4 µM (inactive) | – | > 100 µM (inactive) | – | > 100 µM (inactive) | 77.3 µM (inactive) | – | 30.9 µM (inactive) | > 100 µM (inactive) | > 100 µM (inactive) | 70.8 µM (inactive) | 26.9 µM (inactive) | > 100 µM (inactive) | 57.4 | 19.3 µM (inactive) | 34.8 µM (inactive) | > 100 µM (inactive) | 20.7 µM (inactive) | > 100 µM (inactive)
11 | Cc1c(C(=O)O)c2cc3ccccc3cc2c(=O)n1C | > 10 µM (inactive) | > 10 µM (inactive) | > 10 µM (inactive) | > 10 µM (inactive) | > 10 µM (inactive) | > 10 µM (inactive) | > 10 µM (inactive) | – | > 10 µM (inactive) | > 10 µM (inactive) | > 10 µM (inactive) | – | > 10 µM (inactive) | > 10 | > 10 µM (inactive) | > 10 µM (inactive) | – | – | > 10 µM (inactive)
12 | COc1cc(COC(=O)N(C)[C@@H](Cc2ccccc2)C(=O)O)c([N+](=O)[O-])cc1OC | > 100 µM (inactive) | > 100 µM (inactive) | > 100 µM (inactive) | > 100 µM (inactive) | > 100 µM (inactive) | > 100 µM (inactive) | > 100 µM (inactive) | > 100 µM (inactive) | > 100 µM (inactive) | > 100 µM (inactive) | > 100 µM (inactive) | > 100 µM (inactive) | > 100 µM (inactive) | > 100 | > 100 µM (inactive) | > 100 µM (inactive) | – | > 100 µM (inactive) | –
13 | COc1cccc(Nc2nc(C)c([N+](=O)[O-])c(Nc3cccc(OC)c3)n2)c1 | < 0.01 µM (active) | 12.1 µM (inactive) | > 100 µM (inactive) | 5.74 µM (inactive) | 51.9 µM (inactive) | 54.3 µM (inactive) | 50.1 µM (inactive) | 4.37 µM (inactive) | 40.4 µM (inactive) | > 100 µM (inactive) | 12.6 µM (inactive) | – | 5.75 µM (inactive) | 18.4 | > 100 µM (inactive) | 2.24 µM (inactive) | – | 11.4 µM (inactive) | 4.86 µM (inactive)
14 | CCCCc1ccc(NC(=N)N)cc1 | 23.9 µM (inactive) | 41.5 µM (inactive) | 41.5 µM (inactive) | 38.4 µM (inactive) | 17.7 µM (inactive) | 40 µM (inactive) | 37.1 µM (inactive) | – | 40.2 µM (inactive) | 50.6 µM (inactive) | 25.8 µM (inactive) | 16.9 µM (inactive) | 37.3 µM (inactive) | 33 | 44.5 µM (inactive) | 19.7 µM (inactive) | 28.4 µM (inactive) | 12.9 µM (inactive) | –
15 | CC(=O)C1C(=O)C(=O)N(c2cccc(C)c2C)C1=O (stereo not drawn) | > 100 µM (inactive) | > 100 µM (inactive) | > 100 µM (inactive) | > 100 µM (inactive) | > 100 µM (inactive) | > 100 µM (inactive) | – | 22.8 µM (inactive) | – | > 100 µM (inactive) | > 100 µM (inactive) | – | > 100 µM (inactive) | – | – | > 100 µM (inactive) | > 100 µM (inactive) | > 100 µM (inactive) | –
16 | COC(=O)c1c[nH]c(=O)[nH]c1=O [ISOOROTIC ACID METHYL ESTER] | > 100 µM (inactive) | > 100 µM (inactive) | – | > 100 µM (inactive) | > 100 µM (inactive) | > 100 µM (inactive) | > 100 µM (inactive) | > 100 µM (inactive) | > 100 µM (inactive) | > 100 µM (inactive) | – | > 100 µM (inactive) | > 100 µM (inactive) | > 100 | > 100 µM (inactive) | > 100 µM (inactive) | > 100 µM (inactive) | > 100 µM (inactive) | –
17 | COc1c(O)c(OC)c(C(=O)/C=C/c2ccccc2)c(O)c1OC [PEDICIN] | 35.6 µM (inactive) | – | > 100 µM (inactive) | 17.9 µM (inactive) | 32.4 µM (inactive) | 18.3 µM (inactive) | 30.5 µM (inactive) | 30.5 µM (inactive) | 29 µM (inactive) | 58.9 µM (inactive) | 32.6 µM (inactive) | 94.6 µM (inactive) | – | 28.8 | 27.9 µM (inactive) | 26.9 µM (inactive) | 56.1 µM (inactive) | 20.4 µM (inactive) | –
